Nine compounds from EP0800503B1, “NOVEL TRIENOIC RETINOID COMPOUNDS AND METHODS” (LIGAND PHARMACEUTICALS, INC., priority 1994, dated 1996) can be followed below.

Holding throughout (assay): Co-transfection assay
Common to all, as to format: cell-based

The target of one test is T1, RARα (Homo sapiens, UniProt P10276).
T1 sequence (P10276 1-462): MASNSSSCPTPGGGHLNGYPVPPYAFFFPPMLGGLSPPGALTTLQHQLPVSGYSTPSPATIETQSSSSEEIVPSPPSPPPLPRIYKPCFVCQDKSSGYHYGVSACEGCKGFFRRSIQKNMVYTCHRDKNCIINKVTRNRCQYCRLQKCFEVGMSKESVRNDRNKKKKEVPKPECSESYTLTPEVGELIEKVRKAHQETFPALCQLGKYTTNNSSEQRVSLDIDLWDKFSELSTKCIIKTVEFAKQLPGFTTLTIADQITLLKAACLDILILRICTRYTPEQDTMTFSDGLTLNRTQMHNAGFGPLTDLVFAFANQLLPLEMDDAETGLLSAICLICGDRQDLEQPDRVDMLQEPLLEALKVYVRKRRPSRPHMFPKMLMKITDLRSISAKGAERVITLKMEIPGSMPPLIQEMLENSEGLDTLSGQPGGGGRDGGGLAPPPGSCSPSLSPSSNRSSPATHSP
Conditions: read-out: RARα Pot.

In another test the target is T2, RARβ (Homo sapiens, UniProt P10826).
T2 sequence (P10826 1-448 isoform P10826-2): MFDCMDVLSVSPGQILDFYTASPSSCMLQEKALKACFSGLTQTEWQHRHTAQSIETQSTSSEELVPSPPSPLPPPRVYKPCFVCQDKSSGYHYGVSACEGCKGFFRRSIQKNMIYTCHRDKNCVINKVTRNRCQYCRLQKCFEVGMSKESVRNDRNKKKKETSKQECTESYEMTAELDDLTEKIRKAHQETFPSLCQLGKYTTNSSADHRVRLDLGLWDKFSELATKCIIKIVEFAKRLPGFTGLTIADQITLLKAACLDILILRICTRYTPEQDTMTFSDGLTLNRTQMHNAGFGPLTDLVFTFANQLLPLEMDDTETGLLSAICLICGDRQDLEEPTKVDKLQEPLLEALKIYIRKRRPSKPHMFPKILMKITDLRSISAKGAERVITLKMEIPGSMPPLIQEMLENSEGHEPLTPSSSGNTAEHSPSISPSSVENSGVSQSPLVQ
The conditions noted are these: read-out: RARβ Pot.

In a further test the target is T3, RARγ (Homo sapiens, UniProt P13631).
T3 sequence (P13631 1-454): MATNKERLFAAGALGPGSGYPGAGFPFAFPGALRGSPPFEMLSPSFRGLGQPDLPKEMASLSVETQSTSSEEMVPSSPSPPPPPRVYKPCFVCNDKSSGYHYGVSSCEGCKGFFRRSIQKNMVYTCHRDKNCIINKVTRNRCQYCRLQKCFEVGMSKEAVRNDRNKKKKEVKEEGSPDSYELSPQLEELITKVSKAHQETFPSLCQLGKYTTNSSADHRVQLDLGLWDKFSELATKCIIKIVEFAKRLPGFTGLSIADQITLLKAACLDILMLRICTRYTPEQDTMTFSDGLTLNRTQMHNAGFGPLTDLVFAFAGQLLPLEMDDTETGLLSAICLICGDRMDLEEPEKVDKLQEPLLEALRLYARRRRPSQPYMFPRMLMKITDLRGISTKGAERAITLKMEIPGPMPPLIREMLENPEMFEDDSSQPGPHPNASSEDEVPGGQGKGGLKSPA
The conditions noted are these: read-out: RARγ Pot.

The target in the next test is T4, RXRα (Homo sapiens, UniProt P19793).
T4 sequence (P19793 1-462): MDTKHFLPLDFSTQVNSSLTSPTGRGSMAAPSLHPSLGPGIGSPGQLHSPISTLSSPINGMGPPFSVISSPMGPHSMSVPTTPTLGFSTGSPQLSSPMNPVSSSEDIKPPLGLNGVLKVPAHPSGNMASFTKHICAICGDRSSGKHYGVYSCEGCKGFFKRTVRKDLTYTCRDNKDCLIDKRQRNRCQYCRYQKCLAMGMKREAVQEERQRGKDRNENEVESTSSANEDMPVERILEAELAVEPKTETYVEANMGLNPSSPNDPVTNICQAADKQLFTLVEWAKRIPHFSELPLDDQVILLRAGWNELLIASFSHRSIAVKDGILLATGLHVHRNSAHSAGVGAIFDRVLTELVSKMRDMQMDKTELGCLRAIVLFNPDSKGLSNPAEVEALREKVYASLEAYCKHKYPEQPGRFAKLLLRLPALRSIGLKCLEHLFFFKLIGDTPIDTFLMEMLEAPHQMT
The conditions noted are these: read-out: RXRα Pot.

In the next test the target is T5, RXRβ (Mus musculus, UniProt P28704).
T5 sequence (P28704 1-520): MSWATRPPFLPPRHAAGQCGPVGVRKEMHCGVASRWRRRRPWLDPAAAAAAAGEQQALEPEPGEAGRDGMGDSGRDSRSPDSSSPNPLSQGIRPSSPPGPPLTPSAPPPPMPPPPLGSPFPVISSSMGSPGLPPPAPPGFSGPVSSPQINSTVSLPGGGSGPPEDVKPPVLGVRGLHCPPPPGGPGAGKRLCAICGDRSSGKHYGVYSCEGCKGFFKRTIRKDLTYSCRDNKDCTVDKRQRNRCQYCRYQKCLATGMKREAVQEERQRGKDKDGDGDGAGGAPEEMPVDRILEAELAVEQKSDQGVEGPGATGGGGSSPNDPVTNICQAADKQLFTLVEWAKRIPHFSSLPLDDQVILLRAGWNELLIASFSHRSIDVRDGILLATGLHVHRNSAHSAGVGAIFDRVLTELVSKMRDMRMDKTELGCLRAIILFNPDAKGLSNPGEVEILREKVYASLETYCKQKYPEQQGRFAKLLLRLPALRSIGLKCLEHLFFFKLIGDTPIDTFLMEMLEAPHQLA
The conditions noted are these: read-out: RXRβ Pot.

Another test addresses T6, RXRγ (Mus musculus, UniProt P28705).
T6 sequence (P28705 1-463): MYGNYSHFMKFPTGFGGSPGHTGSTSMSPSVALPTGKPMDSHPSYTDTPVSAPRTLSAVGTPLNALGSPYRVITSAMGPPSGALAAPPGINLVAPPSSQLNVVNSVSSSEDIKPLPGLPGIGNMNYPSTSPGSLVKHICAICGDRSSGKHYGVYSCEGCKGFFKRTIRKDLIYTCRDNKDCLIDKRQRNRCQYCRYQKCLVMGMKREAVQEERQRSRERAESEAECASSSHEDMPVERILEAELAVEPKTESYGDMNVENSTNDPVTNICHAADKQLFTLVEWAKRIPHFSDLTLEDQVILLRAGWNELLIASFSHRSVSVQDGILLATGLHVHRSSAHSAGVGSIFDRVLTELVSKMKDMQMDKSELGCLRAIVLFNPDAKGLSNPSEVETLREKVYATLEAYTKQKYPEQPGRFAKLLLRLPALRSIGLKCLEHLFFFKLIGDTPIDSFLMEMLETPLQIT
The conditions noted are these: read-out: RXRγ Pot.

Where two headings read alike, the source gives them in different places.

In the case of `CCC/C(=C/C=C/C(C)=C/C(=O)O)c1cc(C(C)(C)C)cc(C(C)(C)C)c1` [Compound 28, (2E, 4E, 6Z)-7-(3,5-di-t-butylphenyl)-3-methyldeca-2,4,6-trienoic acid], the EC50 on RARα is over 10 µM; at RARβ, over 10 µM; at RARγ, over 10 µM; at RXRα, 0.02 µM; on RXRβ, 0.104 µM; at RXRγ, 0.05 µM.

As to `CC(/C=C/C=C(\C)c1cc(C(F)(F)F)cc(C(F)(F)F)c1)=C\C(=O)O` [Compound 41, (2E, 4E, 6E)-7-(3,5-Di-trifluoromethylphenyl)-3-methylocta-2,4,6-trienoic acid], the EC50 came out at 0.003 µM at RARα; 0.001 µM at RARβ; 0.004 µM at RARγ; 2.01 µM at RXRα; 0.266 µM at RXRβ; 2.18 µM on RXRγ.

For the compound `C/C(=C/C=C/C(C)=C/C(=O)O)c1cc(C(C)C)cc(C(C)C)c1` [Compound 43, (2E, 4E, 6Z)-7-(3,5-Di-isopropylphenyl)-3-methylocta-2,4,6-trienoic acid], the EC50 at RARα amounted to 0.065 µM; at RARβ, 0.022 µM; at RARγ it was 0.016 µM; on RXRα it was 0.027 µM; on RXRβ, 0.027 µM; at RXRγ, 0.019 µM.

With `CC(/C=C/C=C1\CCOc2c1cc(C(C)(C)C)cc2C(C)(C)C)=C\C(=O)O` [Compound 39, (2E,4E,6E)-6-(6,8,-Di-t-butylchroman-4-ylidene)-3-methylhexa-2,4,6-trienoic acid], the EC50 on RARα was 0.005 µM; on RARβ it was 0.003 µM; at RARγ it was 0.003 µM; on RXRα, over 10 µM; at RXRβ it was over 10 µM; on RXRγ, over 10 µM.

Regarding `COc1cc(C)c(/C=C/C=C/C=C(\C)C(=O)O)c(C)c1C` [C, (2E,4E,6E)-2-methyl-7-(2,3,6-trimethyl-4-methoxyphenyl)hepta-2,4,6-trienoic acid, reference compound], the EC50 on RARα, at RARβ, on RARγ, on RXRα, at RXRβ and at RXRγ was over 10 µM in each case.

With `COc1c(C(C)(C)C)cc(/C(C)=C/C=C/C(C)=C/C(=O)O)cc1C(C)(C)C` [Compound 47, (2E, 4E, 6E) -3-Methyl-7-(3,5-di-t-butyl-4-methoxyphenyl)octa-2,4,6-trienoic acid], the EC50 is over 10 µM on RARα; 0.001 µM on RARβ; 0.001 µM on RARγ; over 10 µM at RXRα; over 10 µM at RXRβ; over 10 µM on RXRγ.

On to “(2E,4E,6Z)-3-Methyl-7-(3,4-diethyl-6-methylphenyl)nona-2,4,6-trienoic acid [Compound 54]”, for which the EC50 on RARα (CV-1 cells, pRShRARα, D-MTV-LUC reporter, 40 hours, potency = EC50) is over 10 µM; at RARβ (CV-1 cells, pRShRARβ, D-MTV-LUC reporter, 40 hours, potency = EC50), 0.13 µM; on RARγ (CV-1 cells, pRShRARγ, D-MTV-LUC reporter, 40 hours, potency = EC50) it was 0.32 µM; on RXRα (CV-1 cells, pRShRXRα, CRBPIIFKLUC reporter, 40 hours, potency = EC50) it was 0.058 µM; on RXRβ (CV-1 cells, pRSmRXRβ, CRBPIIFKLUC reporter, 40 hours, potency = EC50) it was 0.028 µM; at RXRγ (CV-1 cells, pRSmRXRγ, CRBPIIFKLUC reporter, 40 hours, potency = EC50), 0.078 µM.

With `COC(/C=C/C=C(\C)c1ccc(C(C)(C)C)cc1)=C/C(=O)O` [D, (2E,4E,6E)-3-methoxy-7-(4-t-butylphenyl)octa-2,4,6-trienoic acid, reference compound], the EC50 on RARα, on RARβ, on RARγ, at RXRα, at RXRβ and on RXRγ was over 10 µM each time.

As to `COc1ccc(/C(C)=C/C=C/C(C)=C/C(=O)O)cc1` [B, (2E,4E,6E)-3-methyl-7-(4-methoxyphenyl)octa-2,4,6-trienoic acid, reference compound], the EC50 on RARα, on RARβ, at RARγ, on RXRα, at RXRβ and at RXRγ was over 10 µM in each case.
